From US10940139B2, “Compounds that interact with the Ras superfamily for the treatment of cancers, inflammatory diseases, rasopathies, and fibrotic disease” (Shy Therapeutics LLC, priority 2017, dated 2021)
Like-named read-outs stand apart in the source and are kept apart here.

Experiments:
Assay in all cases: Ras GTP binding domain inhibition assay (labeled GTP)
KRas G12D mutant protein = KRas G12D mutant protein (Homo sapiens (Human), UniProt P01116, G12D)
[1] = biological target: KRas G12D/Q61H double mutant (Homo sapiens (Human), UniProt P01116, G12D/Q61H)
In short: (§1)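 Ni-plate capture of His-KRas (3-10 μg/ml, o/n, 4° C); Tris pH 7.5/MgCl2/DTT buffer, 1% DMSO. Cpd 20 μM or titration, 3 h RT. Cy3/Cy5-GTP 45 min RT, wash, fluorescence of bound GTP.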

KRas wild type = KRas wild type (Homo sapiens (Human), UniProt P01116)
In short: as §1

KRas G12C mutant = KRas G12C mutant (Homo sapiens (Human), UniProt P01116, G12C)
In short: as §1

[2] = 20 μM compound, read-out: % Inhibition at 20 μM KRas G12D
[3] = 20 μM compound, read-out: % Inhibition at 20 μM KRas G12D Q61H
[4] = 20 μM compound, read-out: % Inhibition at 20 μM KRas wild type
[5] = 20 μM compound, read-out: % Inhibition at 20 μM KRas G12C
[6] = 20 μM, read-out: KRas G12D % Inh.
[7] = 20 μM, read-out: KRas G12D Q61H % Inh.
[8] = 20 μM, read-out: KRas wild type, % Inh.
[9] = 20 μM, read-out: KRas G12C % Inh.
[10] = 20 μM compound, KRas G12D, read-out: % Inhibition at 20 μM of K-Ras mutant and wild-type protein, KRas G12D
[11] = 20 μM compound, KRas wild type, read-out: % Inhibition at 20 μM of K-Ras mutant and wild-type protein, KRas wild type
[12] = 20 μM compound, KRas G12C, read-out: % Inhibition at 20 μM of K-Ras mutant and wild-type protein, KRas G12C

Sequence of KRas G12C mutant (P01116-2 other isoform, or with tags, fused parts or gaps G12C): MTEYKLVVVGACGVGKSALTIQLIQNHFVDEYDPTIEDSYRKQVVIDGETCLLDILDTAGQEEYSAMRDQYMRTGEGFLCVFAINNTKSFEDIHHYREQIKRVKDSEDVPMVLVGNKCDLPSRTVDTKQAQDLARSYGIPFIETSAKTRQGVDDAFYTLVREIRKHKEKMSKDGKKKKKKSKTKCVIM
Sequence of KRas wild type (P01116-2 other isoform, or with tags, fused parts or gaps): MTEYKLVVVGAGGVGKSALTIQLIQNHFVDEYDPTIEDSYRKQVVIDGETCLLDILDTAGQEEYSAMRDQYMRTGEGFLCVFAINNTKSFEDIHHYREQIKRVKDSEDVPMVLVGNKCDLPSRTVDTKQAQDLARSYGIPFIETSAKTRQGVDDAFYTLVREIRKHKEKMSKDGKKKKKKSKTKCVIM
Sequence of KRas G12D mutant protein (P01116-2 other isoform, or with tags, fused parts or gaps G12D): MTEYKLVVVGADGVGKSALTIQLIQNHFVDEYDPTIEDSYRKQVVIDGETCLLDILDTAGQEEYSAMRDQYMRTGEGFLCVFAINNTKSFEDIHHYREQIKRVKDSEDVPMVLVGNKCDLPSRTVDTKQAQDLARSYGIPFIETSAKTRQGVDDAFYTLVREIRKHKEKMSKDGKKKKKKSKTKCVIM
Sequence of KRas G12D/Q61H double mutant (P01116-2 other isoform, or with tags, fused parts or gaps G12D/Q61H): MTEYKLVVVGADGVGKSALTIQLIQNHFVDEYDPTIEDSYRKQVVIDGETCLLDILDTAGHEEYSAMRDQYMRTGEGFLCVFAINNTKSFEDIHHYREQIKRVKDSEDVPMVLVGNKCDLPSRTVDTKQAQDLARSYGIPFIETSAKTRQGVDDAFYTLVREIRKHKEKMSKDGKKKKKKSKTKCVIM

inhibition at 20 µM (KRas G12D mutant protein; [6]) [%] | inhibition at 20 µM [1, 7] [%] | inhibition at 20 µM (KRas wild type; [8]) [%] | inhibition at 20 µM (KRas G12C mutant; [9]) [%] | SMILES | other results
– | – | – | – | O=C(OCCc1cccnc1)N1CCCc2c(O)nc(-c3ccccn3)nc21 | inhibition at 20 µM (KRas G12D mutant protein; [2]): 51 to 75%; inhibition at 20 µM [1, 3]: 51 to 75%; inhibition at 20 µM (KRas wild type; [4]): 25 to 50%; inhibition at 20 µM (KRas G12C mutant; [5]): 51 to 75%
– | – | – | – | O=C(c1csc2c(O)nc(-c3ccccn3)nc12)N1CCN(c2ccccc2O)CC1 | inhibition at 20 µM (KRas G12D mutant protein; [2]): 25 to 50%; inhibition at 20 µM [1, 3]: 25 to 50%; inhibition at 20 µM (KRas wild type; [4]): 1 to 25%; inhibition at 20 µM (KRas G12C mutant; [5]): 25 to 50%
– | – | – | – | O=C(c1csc2c(O)nc(-c3ccccn3)nc12)N1CCOC(c2ccccc2F)C1 (stereo not drawn) | inhibition at 20 µM (KRas G12D mutant protein; [2]): 51 to 75%; inhibition at 20 µM [1, 3]: 25 to 50%; inhibition at 20 µM (KRas wild type; [4]): 76 to 100%; inhibition at 20 µM (KRas G12C mutant; [5]): 25 to 50%
– | – | – | – | COc1ccc(CCNC(=O)c2csc3nc(-c4ccccn4)nc(N4CCN(C)CC4)c23)cn1 | inhibition at 20 µM (KRas G12D mutant protein; [2]): 25 to 50%; inhibition at 20 µM [1, 3]: 25 to 50%; inhibition at 20 µM (KRas wild type; [4]): 25 to 50%; inhibition at 20 µM (KRas G12C mutant; [5]): 25 to 50%
– | – | – | – | Cc1cnc(-c2ccccn2)nc1NC(=O)COCc1ccncc1 | inhibition at 20 µM (KRas G12D mutant protein; [2]): 51 to 75%; inhibition at 20 µM [1, 3]: 51 to 75%; inhibition at 20 µM (KRas wild type; [4]): 51 to 75%; inhibition at 20 µM (KRas G12C mutant; [5]): 51 to 75%
76 to 100 | 76 to 100 | 51 to 75 | 51 to 75 | O=C(Nc1nnc(-c2ccccn2)[nH]1)c1ccn(-c2ccccc2)n1 [drawing 2464] | –
25 to 50 | 51 to 75 | 25 to 50 | 25 to 50 | COc1ccc(CCC(=O)Nc2nnc(-c3ccccn3)[nH]2)cc1 [drawing 2469] | –
76 to 100 | 76 to 100 | 51 to 75 | 25 to 50 | O=C(Nc1nnc(-c2ccccn2)[nH]1)c1ccc2ccccc2n1 [drawing 2472] | –
25 to 50 | 51 to 75 | 1 to 25 | 1 to 25 | CN(Cc1nnc(-c2ccccc2Cl)o1)Cc1ccccc1C(F)(F)F [drawing 2482] | –
51 to 75 | 51 to 75 | 25 to 50 | 1 to 25 | O=C(Nc1nnc(-c2ccccn2)[nH]1)C1CC(=O)N(Cc2cccc(C(F)(F)F)c2)C1 (stereo not drawn) [drawing 2547] | –
76 to 100 | 76 to 100 | 25 to 50 | 1 to 25 | O=C(Nc1nnc(-c2ccccn2)[nH]1)c1ccn(-c2cccc(Cl)c2)n1 [drawing 2559] | –
51 to 75 | 76 to 100 | 51 to 75 | 25 to 50 | CS(=O)(=O)N1CCCc2cc(C(=O)Nc3nnc(-c4ccccn4)[nH]3)ccc21 [drawing 2561] | –
51 to 75 | 51 to 75 | 1 to 25 | 25 to 50 | COc1ccc(OCc2nc(CNCCc3nnc4n3CCC4)cs2)cc1 [drawing 2565] | –
51 to 75 | 51 to 75 | 51 to 75 | 25 to 50 | O=C(Nc1nc(-c2ccccn2)cs1)c1cccc(F)c1 [drawing 2567] | –
25 to 50 | 76 to 100 | 25 to 50 | 25 to 50 | Cc1cc(C(=O)Nc2nc(-c3ccccn3)cs2)no1 [drawing 2568] | –
1 to 25 | 51 to 75 | 1 to 25 | 25 to 50 | CS(=O)(=O)Cc1ccc(C(=O)Nc2nc(-c3ccccn3)cs2)cc1 [drawing 2572] | –
51 to 75 | 51 to 75 | 25 to 50 | 51 to 75 | O=C(Nc1nc(-c2ccccn2)cs1)c1cccnc1 [drawing 2576] | –
– | – | – | – | Cc1sc2c(O)nc(-c3nccn3C)nc2c1-c1ccccc1 [drawing 3594] | inhibition at 20 µM (KRas G12D mutant protein; [10]): 25 to 50%; inhibition at 20 µM (KRas wild type; [11]): 25 to 50%; inhibition at 20 µM (KRas G12C mutant; [12]): 25 to 50%
– | – | – | – | Cn1ccnc1-c1nc(O)c2sc(-c3ccccc3)c(-c3ccccc3Cl)c2n1 [drawing 3595] | inhibition at 20 µM (KRas G12D mutant protein; [10]): 51 to 75%; inhibition at 20 µM (KRas wild type; [11]): 25 to 50%; inhibition at 20 µM (KRas G12C mutant; [12]): 51 to 75%
– | – | – | – | COCCNc1nc(-c2nccn2C)nc2sc(-c3ccccc3)c(-c3ccncc3)c12 [drawing 3596] | inhibition at 20 µM (KRas G12D mutant protein; [10]): 51 to 75%; inhibition at 20 µM (KRas wild type; [11]): 51 to 75%; inhibition at 20 µM (KRas G12C mutant; [12]): 25 to 50%
– | – | – | – | COCCNc1nc(-c2nccn2C)nc2sc(-c3ccc(OC)cc3)c(-c3ccccc3)c12 [drawing 3597] | inhibition at 20 µM (KRas G12D mutant protein; [10]): 25 to 50%; inhibition at 20 µM (KRas wild type; [11]): 1 to 25%; inhibition at 20 µM (KRas G12C mutant; [12]): 1 to 25%
– | – | – | – | Cn1ccnc1-c1nc(O)c2scc(-c3cccc(C(F)(F)F)c3)c2n1 [drawing 3598] | inhibition at 20 µM (KRas G12D mutant protein; [10]): 25 to 50%; inhibition at 20 µM (KRas wild type; [11]): 25 to 50%; inhibition at 20 µM (KRas G12C mutant; [12]): 1 to 25%

SMILES | inhibition at 20 µM (KRas G12D mutant protein; [6]) [%] | inhibition at 20 µM [1, 7] [%] | inhibition at 20 µM (KRas wild type; [8]) [%] | inhibition at 20 µM (KRas G12C mutant; [9]) [%] | other results
O=C(Nc1nc(-c2ccccn2)cs1)c1ccccn1 [drawing 2573] | 51 to 75 | 76 to 100 | 51 to 75 | 51 to 75 | –
